From ChEMBL document CHEMBL3988442, “University of Dundee, Small-Polar-MMV Screening Library” (2021)
Values joined by “and” are separate entries in the source; they are usually repeats but may differ in a detail not shown here. Equal values may be shown once.

System: Mycobacterium tuberculosis
Assay: Cornell M. t heat shock assay
Format: functional, organism-based
Conditions: for IC50: Mycobacterium tuberculosis

Structure (SMILES)	IC50	pIC50
O=C(CCC(=O)N1CCC(c2noc3cc(F)ccc23)CC1)NC1CC1	> 100 µM	
COC(=O)[C@H](CCSC)NC(=O)Cn1ccc2c(Cl)cccc21	70.7 µM	
Cc1cc(NCc2ccccc2)nc2[nH]nc(N)c12	79.8 µM	
Cc1cc(NCc2ccco2)nc2[nH]nc(N)c12	> 100 µM	
Cc1cc(O)cc(=O)n1CCCC(=O)Nc1n[nH]c2cc(Br)ccc12	> 100 µM	
Cc1cc(O)cc(=O)n1CCCC(=O)Nc1n[nH]c2cccc(F)c12	> 100 µM	
COc1cccc2sc(N3CCN(C(=O)c4cc(C)on4)CC3)nc12	> 100 µM	
O=C(NCC(O)c1ccsc1)Nc1cccs1 (stereo unspecified)	67.5 µM	
O=S(=O)(Nc1cnc(N2CCCC2)nc1)c1ccc(OC(F)(F)F)cc1	> 100 µM	
O=C(NCCC(O)c1ccoc1)Nc1cccs1 (stereo unspecified)	> 100 µM	
Cc1nc(-c2ccccc2)cc2nn(CC(N)=O)c(=O)n12	> 100 µM	
CCOc1cccc2c1OCC(=O)N(c1ccc(N(C)C)cc1)C2	44.1 µM	
Cc1cnc(NC(=O)c2csc(NCC(C)C)n2)s1	1.99 µM	
CCn1nc(C)c(CNC(=O)c2nnc3ccc(Cl)cc3n2)c1C	17.3 µM	
Cc1ccccc1OC1CCN(CC(=O)Nc2cn(C)nc2C)CC1	> 100 µM	
Cc1cc(Nc2ccc(F)cn2)cc(C2CCN(Cc3ncc[nH]3)C2)n1 (stereo unspecified)	> 100 µM	
Cc1cc2ccccc2n1CCC(=O)N1CCN(C)CC1C(N)=O (stereo unspecified)	> 100 µM	
CN(C)S(=O)(=O)N1CCCCCC1c1cc(-c2ccc(F)cc2)no1 (stereo unspecified)	> 100 µM	4.075
Oc1cc(C2CCCN(Cc3cccs3)C2)nc(-c2ccccn2)n1 (stereo unspecified)		4.835 and 5.179
COc1ccc(CNC(Cc2ccsc2)c2ncccc2C)cc1OC (stereo unspecified)	> 49 µM	
COc1cccc(CN2CCCC2c2cncc(Nc3nncs3)n2)c1 (stereo unspecified)	26.9 µM	
c1ccc(CCN2CCCC2c2cncc(Nc3nncs3)n2)cc1 (stereo unspecified)	25.5 µM	
c1nnc(Nc2cncc(C3CCCN3CC3CC3)n2)s1 (stereo unspecified)	29.8 µM	

Structure (SMILES)	IC50	pIC50
COCC(=O)N1CCCC1c1cccc(Nc2ncc(C)s2)n1 (stereo unspecified)	> 100 µM	
CNc1cc(C2CN(Cc3scnc3C)CCO2)nc(C)n1 (stereo unspecified)	> 100 µM	
O=C(c1cncs1)N1CCCC1c1ccn[nH]1 (stereo unspecified)	> 100 µM	
Cc1cc(-c2cnc(N3CCCCCC3)nc2-c2cccnc2C)on1	68.5 µM	4.097
Cc1cc(-c2cnc(NC3CCCC3)nc2-c2ccc(C)o2)on1	> 100 µM	4.052
COc1ccc(CN2CCc3c(nc(-c4ccccn4)[nH]c3=O)C2)cc1		4.829 and 5.147
CC1c2ccc(F)cc2CCN1C(=O)c1[nH]c(=O)[nH]c(=O)c1N (stereo unspecified)	> 100 µM	
CC1c2cc(F)ccc2CCN1C(=O)c1[nH]c(=O)[nH]c(=O)c1N (stereo unspecified)	66.9 µM	
Cc1[nH]ccc1C(=O)N1CCOCC12CCCC2	> 100 µM	
COc1ccc(N2CCC(NCc3csc(C(C)C)n3)CC2)cc1	> 100 µM	
Cc1cc(C)n(CC2CCCN2CC(=O)Nc2cc(C(C)C)no2)n1 (stereo unspecified)		4.348 and 4.706
Cc1noc(NC(=O)c2ccccc2)n1	62.6 µM	4.405
COCCCNC(=O)CN(C)C(=O)c1cc(Cl)ccc1O	87.8 µM	< 4
COc1cc(C(=O)Nc2nc(C)no2)cc(OC)c1Br	21 µM	4.518
COc1cc(C(=O)Nc2nc(C)no2)ccc1OC(F)F	41.3 µM	4.585
COc1cc(C(=O)Nc2nc(C)no2)cc(Cl)c1OC	24.8 µM	4.499
CCOc1cccc2c1OCC(C(=O)NS(=O)(=O)c1c(C)noc1C)=C2	69.3 µM	< 4
O=C(Nc1nc2c(s1)CNCC2)NC1CCCC1	> 100 µM	
CCC(CN1CCOCC1)n1cncc1-c1ccc2c(c1)CCN2CC (stereo unspecified)	98.5 µM	
COc1ccc(CNC(Cc2ccsc2)c2ccc(C)cn2)cc1OC (stereo unspecified)	25.6 µM	
Cc1ccc(CN(CCCn2ccnc2)Cc2c(F)cccc2F)s1.O=C(O)CC(O)(CC(=O)O)C(=O)O	23.6 µM	4.654
Cc1ccc(O)c(CN(CCCn2ccnc2)Cc2ccc(C)s2)c1.O=C(O)CC(O)(CC(=O)O)C(=O)O	42.9 µM	4.427
